Patent US8563553B2, “Compounds and compositions as protein kinase inhibitors” (Novartis AG, priority 2009, dated 2013)

Each compound was assayed against b-Raf(V600E) (Homo sapiens (Human), UniProt P15056, V600E) (assay: Raf/Mek Amplified Luminescence Proximity Homogeneous Assay (Alpha Screen)). Details: b-Raf(V600E) approximately 4 pM; biotinylated Mek, kinase dead approximately 10 nM; ATP 10 μM; pre-incubation 60 minutes; reaction 3 hours at room temperature; read-out: mut-B-RAF IC50.
Assay type: biochemical
Procedure: Raf/Mek Amplified Luminescence Proximity Homogeneous Assay
Assay buffer: 50 mM Tris, pH 7.5, 15 mM MgCl2, 0.01% Bovine Serum Albumin (BSA), 1 mM dithiothreitol (DTT) Stop buffer: 60 mM ethylenediaminetetraacetic acid (EDTA), 0.01% Tween® 20 Bead buffer: 50 mM Tris, pH 7.5, 0.01% Tween® 20 […]
biotinylated Mek, kinase dead
Alpha Screen detection kit (available from PerkinElmer™, #6760617R)
Anti phospho-MEK1/2 (available from Cell Signaling Technology, Inc. #9121) 384 well assay plates (White Greiner® plates, #781207) […]
biotinylated Mek, Kinase dead approximately 10 nM
Pre-incubation time with compounds 60 minutes at room temperature
Reaction time 1 or 3 hours at room temperature
Raf and biotinylated Mek, kinase dead, were combined at 2× final concentrations in assay buffer (50 mM Tris, pH 7.5, 15 mM MgCl2, 0.01% BSA and 1 mM DTT) and dispensed 10 μl per well in assay plates (Greiner white 384 well assay plates #781207) containing 0.5 μl of 40× of a raf kinase inhibitor test compound diluted in 100% DMSO. The plate was incubated for 60 minutes at room temperature.
The Raf kinase activity reaction was started by the addition of 10 μL per well of 2×ATP diluted in assay buffer. […] Phosphorylated product was measured using a rabbit anti-p-MEK (Cell Signaling, #9121) antibody and the Alpha Screen IgG (ProteinA) detection Kit (PerkinElmer #6760617R), by the addition of 30 μL to the well of a mixture of the antibody (1:2000 dilution) and detection beads (1:2000 dilution of both beads) in bead buffer (50 mM Tris, pH 7.5, 0.01% Tween20). The additions were carried out under dark conditions to protect the detection beads from light. A lid was placed on top of the plate and incubated for 1 hour at room temperature, then the luminescence was read on a PerkinElmer Envision instrument. The concentration of each compound for 50% inhibition (IC50) was calculated by non-linear regression using XL Fit data analysis software.

Chain of b-Raf(V600E) (P15056 whole entry V600E): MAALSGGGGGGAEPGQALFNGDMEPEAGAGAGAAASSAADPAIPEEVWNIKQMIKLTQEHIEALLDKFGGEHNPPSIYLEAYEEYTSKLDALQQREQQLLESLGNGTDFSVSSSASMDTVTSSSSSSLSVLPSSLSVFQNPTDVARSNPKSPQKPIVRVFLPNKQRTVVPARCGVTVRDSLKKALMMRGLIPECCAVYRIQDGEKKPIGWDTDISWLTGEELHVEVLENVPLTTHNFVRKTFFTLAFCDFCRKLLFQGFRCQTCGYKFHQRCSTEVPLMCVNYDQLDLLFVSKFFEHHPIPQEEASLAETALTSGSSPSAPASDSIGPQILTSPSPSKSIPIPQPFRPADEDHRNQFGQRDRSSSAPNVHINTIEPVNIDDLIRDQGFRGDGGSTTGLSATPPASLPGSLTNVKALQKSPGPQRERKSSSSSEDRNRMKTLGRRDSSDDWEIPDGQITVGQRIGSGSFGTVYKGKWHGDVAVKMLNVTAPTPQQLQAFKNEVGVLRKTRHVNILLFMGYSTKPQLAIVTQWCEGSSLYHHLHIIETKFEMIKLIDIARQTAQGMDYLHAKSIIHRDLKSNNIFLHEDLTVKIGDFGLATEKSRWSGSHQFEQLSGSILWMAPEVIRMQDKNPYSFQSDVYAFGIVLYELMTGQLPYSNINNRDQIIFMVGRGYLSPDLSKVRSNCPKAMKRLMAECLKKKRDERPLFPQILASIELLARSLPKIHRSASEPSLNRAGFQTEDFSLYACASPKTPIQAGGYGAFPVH

Question: Which IC50 does the source give for `Cc1cc(NS(C)(=O)=O)c(Cl)c(-c2nc(C3(C)CC3)[nH]c2-c2ccnc(NCCC#N)n2)c1` [Example 1AZ, N-(2-Chloro-3-(5-(2-(2-cyanoethylamino)pyrimidin-4-yl)-2-(1-methylcyclopropyl)-1H-imidazol-4-yl)-5-methylphenyl)methanesulfonamide] here?
Answer: The IC50 was 0.29 nM.

Question: For `COC(=O)N[C@@H](C)CNc1nccc(-c2[nH]c(C3CC3)nc2-c2cc(C)cc(NS(C)(=O)=O)c2F)n1` [Example 1B, (S)-methyl 1-(4-(2-cyclopropyl-4-(2-fluoro-5-methyl-3-(methylsulfonamido)phenyl)-1H-imidazol-5-yl)pyrimidin-2-ylamino)propan-2-ylcarbamate], which IC50 is on record?
Answer: Its IC50 is 0.2 nM.

Question: Which IC50 does the source give for `Cc1cc(NS(C)(=O)=O)c(F)c(-c2nc(C3(C)CC3)[nH]c2-c2ccnc(NCCC#N)n2)c1` [Example 1BA, N-(3-(5-(2-(2-Cyanoethylamino)pyrimidin-4-yl)-2-(1-methylcyclopropyl)-1H-imidazol-4-yl)-2-fluoro-5-methylphenyl)methanesulfonamide] here?
Answer: The IC50 was 0.37 nM.

Question: For `CC1(c2nc(-c3cc(Cl)cc(NS(C)(=O)=O)c3F)c(-c3ccnc(NCCC#N)n3)[nH]2)CC1` [Example 1BB, N-(5-Chloro-3-(5-(2-(2-cyanoethylamino)pyrimidin-4-yl)-2-(1-methylcyclopropyl)-1H-imidazol-4-yl)-2-fluorophenyl)methanesulfonamide], which IC50 is on record?
Answer: The IC50 was 0.11 nM.

Question: For `CC1(c2nc(-c3cccc(NS(C)(=O)=O)c3Cl)c(-c3ccnc(NCCC#N)n3)[nH]2)CC1` [Example 1BC, N-(2-Chloro-3-(5-(2-(2-cyanoethylamino)pyrimidin-4-yl)-2-(1-methylcyclopropyl)-1H-imidazol-4-yl)phenyl)methanesulfonamide], which IC50 is on record?
Answer: The IC50 was 1 nM.

Question: With `CC(C)(C)c1nc(-c2cc(Cl)cc(NS(C)(=O)=O)c2F)c(-c2ccnc(N)n2)[nH]1` [Example 1BD, N-(3-(5-(2-Aminopyrimidin-4-yl)-2-tert-butyl-1H-imidazol-4-yl)-5-chloro-2-fluorophenyl)methanesulfonamide] as the compound, how does the IC50 read?
Answer: Its IC50 is 3 nM.

Question: For `CC(C)(C)c1nc(-c2cc(Cl)cc(NS(=O)(=O)c3c(F)cccc3F)c2F)c(-c2ccnc(N)n2)[nH]1` [Example 1BE, N-(3-(5-(2-Aminopyrimidin-4-yl)-2-tert-butyl-1H-imidazol-4-yl)-5-chloro-2-fluorophenyl)-2,6-difluorobenzenesulfonamide], which IC50 is on record?
Answer: The IC50 was 0.13 nM.

Question: With `Nc1nccc(-c2[nH]c(C3CC3)nc2-c2cc(Cl)cc(NS(=O)(=O)c3c(F)cccc3F)c2F)n1` [Example 1BF, N-(3-(5-(2-Aminopyrimidin-4-yl)-2-cyclopropyl-1H-imidazol-4-yl)-5-chloro-2-fluorophenyl)-2,6-difluorobenzenesulfonamide] as the compound, how does the IC50 read?
Answer: Its IC50 is 0.1 nM.

Question: How did the IC50 turn out when `CS(=O)(=O)Nc1cc(Cl)cc(-c2nc(C3CC3)[nH]c2-c2ccnc(N)n2)c1F` [Example 1BG, N-(3-(5-(2-Aminopyrimidin-4-yl)-2-cyclopropyl-1H-imidazol-4-yl)-5-chloro-2-fluorophenyl)methanesulfonamide] was run?
Answer: Its IC50 is 4 nM.

Question: For `CCCS(=O)(=O)Nc1cc(Cl)cc(-c2nc(C(C)(C)C)[nH]c2-c2ccnc(N)n2)c1F` [Example 1BH, N-(3-(5-(2-Aminopyrimidin-4-yl)-2-tert-butyl-1H-imidazol-4-yl)-5-chloro-2-fluorophenyl)propane-1-sulfonamide], which IC50 is on record?
Answer: Its IC50 is 0.08 nM.

Question: `COC(=O)N[C@@H](C)CNc1nccc(-c2[nH]c(C3CC3)nc2-c2cc(F)cc(NS(=O)(=O)c3c(F)cccc3F)c2Cl)n1` [Example 1BI, (S)-Methyl 1-(4-(4-(2-chloro-3-(2,6-difluorophenylsulfonamido)-5-fluorophenyl)-2-cyclopropyl-1H-imidazol-5-yl)pyrimidin-2-ylamino)propan-2-ylcarbamate] was tested. Which IC50 did it give?
Answer: Its IC50 is 0.1 nM.

Question: For `CC(C)(C)c1nc(-c2cc(F)cc(NS(C)(=O)=O)c2Cl)c(-c2ccnc(N)n2)[nH]1` [Example 1BJ, N-(3-(5-(2-Aminopyrimidin-4-yl)-2-tert-butyl-1H-imidazol-4-yl)-2-chloro-5-fluorophenyl)methanesulfonamide], which IC50 is on record?
Answer: Its IC50 is 5 nM.

Question: How did the IC50 turn out when `CC(C)(C)c1nc(-c2cccc(NS(=O)(=O)c3c(F)cccc3F)c2Cl)c(-c2ccnc(N)n2)[nH]1` [Example 1BK, N-(3-(5-(2-Aminopyrimidin-4-yl)-2-tert-butyl-1H-imidazol-4-yl)-2-chlorophenyl)-2,6-difluorobenzenesulfonamide] was run?
Answer: The IC50 was 0.22 nM.

Question: How did the IC50 turn out when `CC(C)(C)c1nc(-c2cccc(NS(C)(=O)=O)c2Cl)c(-c2ccnc(N)n2)[nH]1` [Example 1BL, N-(3-(5-(2-Aminopyrimidin-4-yl)-2-tert-butyl-1H-imidazol-4-yl)-2-chlorophenyl)methanesulfonamide] was run?
Answer: The IC50 was 55 nM.

Question: For `COC(=O)N[C@@H](C)CNc1nccc(-c2[nH]c(C3CC3)nc2-c2cc(Cl)cc(NS(=O)(=O)c3cc(F)cc(F)c3)c2F)n1` [Example 1BM, (S)-Methyl 1-(4-(4-(5-chloro-3-(3,5-difluorophenylsulfonamido)-2-fluorophenyl)-2-cyclopropyl-1H-imidazol-5-yl)pyrimidin-2-ylamino)propan-2-ylcarbamate], which IC50 is on record?
Answer: Its IC50 is 0.37 nM.

Question: How did the IC50 turn out when `COC(=O)N[C@@H](C)CNc1nccc(-c2[nH]c(C3CC3)nc2-c2cc(Cl)cc(NS(=O)(=O)c3ccc(C(F)(F)F)cc3)c2F)n1` [Example 1BN, (S)-Methyl 1-(4-(4-(5-chloro-2-fluoro-3-(4-(trifluoromethyl)phenylsulfonamido)phenyl)-2-cyclopropyl-1H-imidazol-5-yl)pyrimidin-2-ylamino)propan-2-ylcarbamate] was run?
Answer: Its IC50 is 7 nM.

Question: `COC(=O)N[C@@H](C)CNc1nccc(-c2[nH]c(C3CC3)nc2-c2cc(C)cc(NS(=O)(=O)CC(F)(F)F)c2F)n1` [Example 1BO, (S)-Methyl 1-(4-(2-cyclopropyl-4-(2-fluoro-5-methyl-3-(2,2,2-trifluoroethylsulfonamido)phenyl)-1H-imidazol-5-yl)pyrimidin-2-ylamino)propan-2-ylcarbamate] was tested. Which IC50 did it give?
Answer: Its IC50 is 0.25 nM.

Question: For `CC(C)(C)c1nc(-c2cc(F)cc(NS(=O)(=O)c3c(F)cccc3F)c2Cl)c(-c2ccnc(N)n2)[nH]1` [Example 1BP, N-(3-(5-(2-Aminopyrimidin-4-yl)-2-tert-butyl-1H-imidazol-4-yl)-2-chloro-5-fluorophenyl)-2,6-difluorobenzenesulfonamide], which IC50 is on record?
Answer: Its IC50 is 0.26 nM.

Question: How did the IC50 turn out when `CS(=O)(=O)Nc1cc(F)cc(-c2nc(C3CC3)[nH]c2-c2ccnc(N)n2)c1Cl` [Example 1BQ, N-(3-(5-(2-Aminopyrimidin-4-yl)-2-cyclopropyl-1H-imidazol-4-yl)-2-chloro-5-fluorophenyl)methanesulfonamide] was run?
Answer: Its IC50 is 12 nM.

Question: For `Nc1nccc(-c2[nH]c(C3CC3)nc2-c2cc(F)cc(NS(=O)(=O)c3c(F)cccc3F)c2Cl)n1` [Example 1BR, N-(3-(5-(2-Aminopyrimidin-4-yl)-2-cyclopropyl-1H-imidazol-4-yl)-2-chloro-5-fluorophenyl)-2,6-difluorobenzenesulfonamide], which IC50 is on record?
Answer: Its IC50 is 0.19 nM.

Question: `CCCS(=O)(=O)Nc1cc(F)cc(-c2nc(C3CC3)[nH]c2-c2ccnc(N)n2)c1Cl` [Example 1BS, N-(3-(5-(2-Aminopyrimidin-4-yl)-2-cyclopropyl-1H-imidazol-4-yl)-2-chloro-5-fluorophenyl)propane-1-sulfonamide] was tested. Which IC50 did it give?
Answer: The IC50 was 0.2 nM.

Question: `COC(=O)N[C@@H](C)CNc1nccc(-c2[nH]c(C3CCC3)nc2-c2cc(Cl)cc(NS(C)(=O)=O)c2F)n1` [Example 1BT, (S)-Methyl 1-(4-(4-(5-chloro-2-fluoro-3-(methylsulfonamido)phenyl)-2-cyclobutyl-1H-imidazol-5-yl)pyrimidin-2-ylamino)propan-2-ylcarbamate] was tested. Which IC50 did it give?
Answer: The IC50 was 0.23 nM.

Question: How did the IC50 turn out when `COC(=O)N[C@@H](C)CNc1nccc(-c2[nH]c(C3CCC3)nc2-c2cc(F)cc(NS(C)(=O)=O)c2Cl)n1` [Example 1BU, (S)-Methyl 1-(4-(4-(2-chloro-5-fluoro-3-(methylsulfonamido)phenyl)-2-cyclobutyl-1H-imidazol-5-yl)pyrimidin-2-ylamino)propan-2-ylcarbamate] was run?
Answer: Its IC50 is 1 nM.

Question: For `CNc1nccc(-c2[nH]c(C3CC3)nc2-c2cc(F)cc(NS(=O)(=O)c3c(F)cccc3F)c2Cl)n1` [Example 1BV, N-(2-Chloro-3-(2-cyclopropyl-5-(2-(methylamino)pyrimidin-4-yl)-1H-imidazol-4-yl)-5-fluorophenyl)-2,6-difluorobenzenesulfonamide], which IC50 is on record?
Answer: The IC50 was 1 nM.

Question: With `CNc1nccc(-c2[nH]c(C3CC3)nc2-c2cc(F)cc(NS(C)(=O)=O)c2Cl)n1` [Example 1BW, N-(2-Chloro-3-(2-cyclopropyl-5-(2-(methylamino)pyrimidin-4-yl)-1H-imidazol-4-yl)-5-fluorophenyl)methanesulfonamide] as the compound, how does the IC50 read?
Answer: Its IC50 is 31 nM.

Question: How did the IC50 turn out when `CCCS(=O)(=O)Nc1cc(F)cc(-c2nc(C3CC3)[nH]c2-c2ccnc(NC)n2)c1Cl` [Example 1BX, N-(2-Chloro-3-(2-cyclopropyl-5-(2-(methylamino)pyrimidin-4-yl)-1H-imidazol-4-yl)-5-fluorophenyl)propane-1-sulfonamide] was run?
Answer: Its IC50 is 0.11 nM.
